Converted amounts (≈) assume the structure as drawn.
Legend:
Test in all cases: In Vitro Minimum Inhibitory Concentration
Assay type in all cases: cell-based
Acinetobacter baumannii = tested on: Acinetobacter baumannii
Description: (§1) Subsequent dilutions had the concentration calculated in ppm. Each concentration was challenged with an equal volume of microbial inoculums. After incubation the lowest concentration showing “No-Growth” was recorded as the Minimum Inhibitory Concentration.

Klebsiella pneumoniae = tested on: Klebsiella pneumoniae
Description: as §1

Enterococcus faecalis = tested on: Enterococcus faecalis
Description: as §1

Haemophilus influenzae = tested on: Haemophilus influenzae
Description: as §1

Micrococcus luteus = conditions: ATCC7468, ATCC 7468
Description: as §1

Escherichia coli = conditions: for MIC: Escherichia coli
Description: as §1

Candida albicans = tested on: Candida albicans
Description: as §1

Enterobacter aerogenes = conditions: Klebsiella aerogenes
Description: as §1

Candida tropicalis = conditions: ATCC750, ATCC 750
Description: as §1

Enterococcus faecium = tested on: Enterococcus faecium
Description: as §1

Bacteroides fragilis = tested on: Bacteroides fragilis
Description: as §1

Klebsiella oxytoca = tested on: Klebsiella oxytoca
Description: as §1

Candida parapsilosis = conditions: Lodderomyces parapsilosis; clinical isolate 040400Cp2
Description: as §1

## CCO [70% ethyl alcohol, ethyl alcohol]
Acinetobacter baumannii; ATCC19606, ATCC 19606, trypticase soy broth
  MIC: 4380 µg/mL (≈ 95 mM)
Acinetobacter baumannii; clinical isolate 061901 Ab1
  MIC: 8750 µg/mL (≈ 190 mM)
Klebsiella pneumoniae; ATCC13883, ATCC 13883
  MIC: 4380 µg/mL (≈ 95 mM)
Klebsiella pneumoniae; clinical isolate 06190Kpn1
  MIC: 8750 µg/mL (≈ 190 mM)
Enterococcus faecalis; ATCC29212, ATCC 29212
  MIC: 8750 µg/mL (≈ 190 mM)
Enterococcus faecalis; clinical isolate 040400Esp17
  MIC: 8750 µg/mL (≈ 190 mM)
Haemophilus influenzae; ATCC19418, ATCC 19418
  MIC: 5830 µg/mL (≈ 127 mM)
Haemophilus influenzae; clinical isolate 121699Hi
  MIC: 5830 µg/mL (≈ 127 mM)
Micrococcus luteus
  MIC: 8750 µg/mL (≈ 190 mM)
Escherichia coli; ATCC11229, ATCC 11229
  MIC: 8750 µg/mL (≈ 190 mM)
Escherichia coli; ATCC25922, ATCC 25922
  MIC: 8750 µg/mL (≈ 190 mM)
Escherichia coli; clinical isolate 051599Ec
  MIC: 8750 µg/mL (≈ 190 mM)
Escherichia coli; clinical isolate 070399Ec
  Minimum Inhibitory Concentration: 8750 ppm
Candida albicans; ATCC10231, ATCC 10231
  MIC: 17500 µg/mL (≈ 380 mM)
Candida albicans; clinical isolate 040400Ca2
  MIC: 17500 µg/mL (≈ 380 mM)
Enterobacter aerogenes; ATCC13048, ATCC 13048
  MIC: 8750 µg/mL (≈ 190 mM)
Enterobacter aerogenes; clinical isolate 040400Ea1
  MIC: 8750 µg/mL (≈ 190 mM)
Candida tropicalis
  MIC: 17500 µg/mL (≈ 380 mM)
Enterococcus faecium; ATCC51559, ATCC 51559
  MIC: 8750 µg/mL (≈ 190 mM)
Enterococcus faecium; clinical isolate 061901Efm1
  MIC: 8750 µg/mL (≈ 190 mM)
Bacteroides fragilis; ATCC25285, ATCC 25285
  MIC: 8750 µg/mL (≈ 190 mM)
Bacteroides fragilis; clinical isolate 061901Bf2
  MIC: 8750 µg/mL (≈ 190 mM)
Klebsiella oxytoca; ATCC43165, ATCC 43165
  MIC: 8750 µg/mL (≈ 190 mM)
Klebsiella oxytoca; clinical isolate 061901Ko1
  MIC: 8750 µg/mL (≈ 190 mM)
Candida parapsilosis
  MIC: 17500 µg/mL (≈ 380 mM)
